Patent US20250144087A1, “USE OF VE607 FOR THE TREATMENT OF SARS-COV-2 INFECTIONS AND RELATED DISEASES” (priority 2022, published 2025)

Legend:
[1] = tested on: pseudoviral particles expressing the Spike from SARS-CoV-2; test: microbe, parasite or virus in culture; type: cell-based; details: SARS-CoV-2 D614G pseudovirus
[2] = tested on: SARS-CoV-2 D614G Spike Y505T pseudoviral particles; type: cell-based
[3] = molecular target: SARS-CoV-2 Spike (Severe acute respiratory syndrome coronavirus 2, UniProt P0DTC2, D614G); type: cell-based
[4] = molecular target: interaction of sACE2 with the full SARS-CoV-2 Spike expressed at the cell surface (Severe acute respiratory syndrome coronavirus 2, UniProt P0DTC2, D614G); type: binding
[5] = tested on: SARS-CoV-2 D614G Spike Q498V pseudoviral particles; type: cell-based
[6] = tested on: pseudoviral particles bearing the Spike glycoproteins from the major VOCs (Alpha, Beta, Gamma, Delta and Omicron); type: cell-based, SARS-CoV-2
[7] = tested on: authentic SARS-CoV-2 D614G; type: cell-based

Which “capacity to neutralize SARS-CoV-2 pseudovirus particles compared with commercially available VE607” value [1] does the source give for `O[C@@H](COc1cccc(OC[C@H](O)CN2CCCCC2)c1)CN1CCCCC1` [(R,R)-VE607, (2R,2′R)-3,3′-(1,3-phenylenebis(oxy))bis(1-(piperidin-1-yl)propan-2-ol)] here?
The value was “same capacity as commercially available VE607”.

`C=CCC(/C=C/OCC(O)CN(CC)CCC)OCC(O)CN(CC)CCC` (centres unmarked) [VE607] was tested. Which IC50 [2] did it give?
The IC50 was > 40000 nM.

What about the “S1 shedding / trimer stability” value [3] of the same compound?
The value was “decrease shedding”.

What about the “competition with sACE2 for interaction with Spike” value [4] of the same compound?
Its value is “no competition”.

And the IC50 [5]?
Its IC50 is 1800 nM.

And the IC50 values [6]?
The IC50 values was “low micromolar range”.

And the IC50 [7]?
Its IC50 is 2420 nM.

With `O[C@H](COc1cccc(OC[C@@H](O)CN2CCCCC2)c1)CN1CCCCC1` [(S,S)-VE607, (2S,2'S)-3,3′-(1,3-phenylenebis(oxy))bis(1-(piperidin-1-yl)propan-2-ol)] as the compound, how does the “capacity to neutralize SARS-CoV-2 pseudovirus particles compared with commercially available VE607” value [1] read?
The value was “same capacity as commercially available VE607”.
